Source: patent publication US5747448A, “Derivatives of cyclodepsipeptide PF 1022” (Meiji Seika Kaisha, Ltd., priority 1993, dated 1998)
Read-outs that look alike come from different tables or passages of the source.

How the values were obtained:
[1] = amide bond, 24-membered ring, THF/DMF
fowl roundworms = test: Fowl Roundworm Eliminating Test; assay type: in vivo; conditions: infected fowls, worms counted to day 7
Experimental: Test 1 Fowl Roundworm Eliminating Test Fowls (three fowls per group), which had been artificially infected with fowl roundworms and whose infection therewith had been confirmed by scatoscopy, were used as experimental animals. Upon administration of each test substance, the test substance weighed in a dose (mg) accurately calculated on the basis of the body weight (kg) of each fowl was suspended in carboxymethylcellulose-containing water, and the resulting suspension was administered orally as a single dose unit using a stomach tube. After the administration, the worms eliminated from the fowls were counted daily. Seven days after the administration, the fowl was sacrificed and autopsied and the worms remaining in its intestinal tract were counted. The percent elimination was calculated in accordance with the following calculation equation: [formula] Each test substance is indicated by the corresponding substance code name shown above in Table 1.

Haemonchus contortus = test: In vivo Anthelmintic Activity Test on Nematodes in sheep (egg excretion); design: key: "0" when there were no anthelmintic activities; "2" when excretion of parasite's eggs was observed; "3" when excretion of parasite's eggs stopped, that is, parasitic worms were removed completely; conditions: parasitic worms H, oral gelatin capsule
Source text: Test 2 In vivo Anthelmintic Activity Test on Nematodes To each sheep which had artificially been infected with Trichostrongylus colubriformis (hereinafter abbreviated as "T") and Haemonchus contortus (hereinafter abbreviated as […]), respectively, a test substance weighed in a dose accurately calculated from the weight […] of the sheep was orally administered in the form of a gelatin capsule. The number of parasite's eggs excreted with feces from the sheep was counted quantitatively before and after the administration so that the degree of anthelmintic effects was determined. The anthelmintic effects are evaluated by rated numeral 0, 1, 2 or 3. The anthelmintic effects are rated "0" when there were no anthelmintic activities, "2" when excretion of parasite's eggs was observed, and "3" when excretion of parasite's eggs stopped, that is, parasitic worms were removed completely.

[2] = test system: Nippostrongylus brasillensis; test: Anthelmintic effects on a rat intestinal nematode (N. brasillensis-infected rats); assay type: in vivo; conditions: male Wistar rats
Experimental: Anthelmintic effects of certain PF1022 derivatives on a rat intestinal nematode were tested in accordance with the following method.
Sixteen male Wistar rats were divided into eight groups (two rats per group), and about 2,000 larval worms of Nippostrongylus brasillensis were hypodermically inoculated per rat. Seven days after the inoculation, PF1022, PF1022E, PF1022-002, PF1022-003, PF1022-209, PF1022-218 and PF1022-219 were, as test substances, forcedly administered p.o. to the rats in the groups, respectively, in an amount of 10 mg/kg per rat. Upon administration, each test substance (8 mg) was dissolved in 0.2 ml of dimethyl sulfoxide and then, the resultant solution was diluted with distilled water to give a 2 ml suspension. Ten days after the inoculation,the rats were each subjected to autopsy and imaginal worms parasitic on the small intestines were counted.
As the test results, the average of remaining worms in each of the eight groups and the percent effectiveness of the test substance in each group as compared with that of the infected control group are shown in Table 4.

SMILES: CCCCCC[C@H]1OC(=O)[C@H](CC(C)C)N(C)C(=O)[C@@H](C)OC(=O)[C@H](CC(C)C)N(C)C(=O)[C@@H](Cc2ccccc2)OC(=O)[C@H](CC(C)C)N(C)C(=O)[C@@H](C)OC(=O)[C@H](CC(C)C)N(C)C1=O
- ring closure, isolated yield ([1]; from H-MeLeu-dOctA-MeLeu-dLac-MeLeu-dPhLac-MeLeu-dLac-OH, EDCI.HCl/HOBt/NMM/LiCl/NaCl/KCl/CsCl, 0.95 mM): 24.7%

SMILES: CC(C)C[C@H]1C(=O)O[C@H](Cc2ccc(O)cc2)C(=O)N(C)[C@@H](CC(C)C)C(=O)O[C@H](C)C(=O)N(C)[C@@H](CC(C)C)C(=O)O[C@H](Cc2ccccc2)C(=O)N(C)[C@@H](CC(C)C)C(=O)O[C@H](C)C(=O)N1C [H-MeLeu-dLac-MeLeu-dTYRA-MeLeu-dLac-MeLeu-dPhLac-OH]
- ring closure, isolated yield ([1]; from H-MeLeu-dLac-MeLeu-dTYRA-MeLeu-dLac-MeLeu-dPhLac-OH, EDCI.HCl/HOBt/NMM/LiCl/KCl/NaCl/CsCl, 0.89 mM): 33%

SMILES: CC(C)C[C@H]1C(=O)O[C@H](C(C)C)C(=O)N(C)[C@@H](CC(C)C)C(=O)O[C@H](Cc2ccccc2)C(=O)N(C)[C@@H](CC(C)C)C(=O)O[C@H](C(C)C)C(=O)N(C)[C@@H](CC(C)C)C(=O)O[C@H](Cc2ccccc2)C(=O)N1C [cyclo(L-MeLeu-D-VALA-L-MeLeu-D-PhLac)2]
- ring closure, isolated yield ([1]; from H-MeLeu-dVALA-MeLeu-dPhLac-MeLeu-dVALA-MeLeu-dPhLac-OH, EDCI.HCl/HOBt/NMM/LiCl/KCl/NaCl/CsCl, 0.9 mM, 25.0 °C): 56.5%

SMILES: CCCC[C@H]1OC(=O)[C@H](CC(C)C)N(C)C(=O)[C@@H](Cc2ccccc2)OC(=O)[C@H](CC(C)C)N(C)C(=O)[C@@H](CCCC)OC(=O)[C@H](CC(C)C)N(C)C(=O)[C@@H](Cc2ccccc2)OC(=O)[C@H](CC(C)C)N(C)C1=O [Cyclo-(L-MeLeu-D-norLEUA-L-MeLeu-D-PhLac)2]
- ring closure, isolated yield ([1]; from H-MeLeu-dnorLEUA-MeLeu-dPhLac-MeLeu-dnorLEUA-MeLeu-dPhLac-OH, EDCI.HCl/HOBt/NMM/LiCl/NaCl/KCl/CsCl, 0.82 mM, 3 steps): 35.8%

SMILES: CC(C)C[C@@H]1NC(=O)[C@@H](Cc2ccccc2)OC(=O)[C@H](CC(C)C)N(C)C(=O)[C@@H](C)OC(=O)[C@H](CC(C)C)NC(=O)[C@@H](Cc2ccccc2)OC(=O)[C@H](CC(C)C)N(C)C(=O)[C@@H](C)OC1=O [Cyclo-(L-MeLeu-D-PhLac-L-Leu-D-Lac)2]
- ring closure, isolated yield ([1]; from H-MeLeu-dPhLac-Leu-dLac-MeLeu-dPhLac-Leu-dLac-OH, EDCI.HCl/HOBt/NMM, LiCl/KCl/NaCl/CsCl, 0.96 mM, 25.0 °C, 3 steps): 62%

SMILES: CC(C)C[C@H]1C(=O)O[C@H](Cc2ccc(OC(C)(C)C)cc2)C(=O)N(C)[C@@H](CC(C)C)C(=O)O[C@H](C)C(=O)N(C)[C@@H](CC(C)C)C(=O)O[C@H](Cc2ccccc2)C(=O)N(C)[C@@H](CC(C)C)C(=O)O[C@H](C)C(=O)N1C [PF1022-215, cyclo-(L-MeLeu-D-PhLac-L-MeLeu-D-Lac-L-MeLeu-D-TYRA(O-t-Bu)-L-MeLeu-D-Lac)]
- % Elimination (fowl roundworms; single oral dose 1.0 mg/kg): 37%
- % Elimination (fowl roundworms; single oral dose 2.0 mg/kg): 98%
- Degree of effects (Haemonchus contortus; 0.25 mg/kg): 3

SMILES: CC(C)C[C@H]1OC(=O)[C@H](CC(C)C)N(C)C(=O)[C@@H](C)OC(=O)[C@H](CC(C)C)N(C)C(=O)[C@@H](Cc2ccccc2)OC(=O)[C@H](CC(C)C)N(C)C(=O)[C@@H](C)OC(=O)[C@H](CC(C)C)N(C)C1=O [PF1022-003, cyclo-(-L-MeLeu-D-Lac-L-MeLeu-D-PhLac-L-MeLeu-D-Lac-L-MeLeu-D-LEUA-)]
- ring closure, isolated yield ([1]; from H-MeLeu-dLEUA-MeLeu-dLac-MeLeu-dPhLac-MeLeu-dLac-OH, EDCI.HCl/HOBt/NMM/KCl/CsCl, 3 steps): 44%
- % Elimination (fowl roundworms; single oral dose 10 mg/kg): 76%
- Number of remaining worms (average value ± SD) ([2]; 10 mg/kg p.o. 7 days after inoculation, autopsy 10 days after inoculation): 689 ± 48.1
- % Effectiveness ([2]; 10 mg/kg p.o., compared with infected control group): 66.1%

SMILES: CCCCCC[C@H]1OC(=O)[C@H](CC(C)C)N(C)C(=O)[C@@H](C)OC(=O)[C@H](CC(C)C)N(C)C(=O)[C@@H](CCCCCC)OC(=O)[C@H](CC(C)C)N(C)C(=O)[C@@H](C)OC(=O)[C@H](CC(C)C)N(C)C1=O [Cyclo-(L-MeLeu-D-OctA-L-MeLeu-D-Lac)2]
- ring closure, isolated yield ([1]; from H-MeLeu-dOctA-MeLeu-dLac-MeLeu-dOctA-MeLeu-dLac-OH, EDCI.HCl/HOBt/NMM/LiCl/NaCl/KCl/CsCl, 0.81 mM): 92%

SMILES: CC(C)C[C@@H]1NC(=O)[C@@H](C)OC(=O)[C@H](CC(C)C)N(C)C(=O)[C@@H](Cc2ccccc2)OC(=O)[C@H](CC(C)C)NC(=O)[C@@H](C)OC(=O)[C@H](CC(C)C)N(C)C(=O)[C@@H](Cc2ccccc2)OC1=O [Cyclo-(L-MeLeu-D-Lac-L-Leu-D-PhLac)2]
- ring closure, isolated yield ([1]; from H-MeLeu-dLac-Leu-dPhLac-MeLeu-dLac-Leu-dPhLac-OH, EDCI.HCl/HOBt/NMM, LiCl/KCl/NaCl/CsCl, 0.96 mM, 25.0 °C, 3 steps): 55.8%

SMILES: CC(C)CC1C(=O)OC(Cc2ccc(OCc3ccccc3)cc2)C(=O)N(C)C(CC(C)C)C(=O)OC(C)C(=O)N(C)C(CC(C)C)C(=O)OC(Cc2ccc(OCc3ccccc3)cc2)C(=O)N(C)C(CC(C)C)C(=O)OC(C)C(=O)N1C [PF1022-201, cyclo-(L-MeLeu-D-Lac-L-MeLeu-D-TYRA(OBn))2]
- Degree of effects (Haemonchus contortus; 0.1 mg/kg): 1
- Degree of effects (Haemonchus contortus; 0.25 mg/kg): 3

SMILES: CC(C)C[C@H]1C(=O)O[C@H](C)C(=O)N(C)[C@@H](CC(C)C)C(=O)O[C@H](C)C(=O)N(C)[C@@H](CC(C)C)C(=O)O[C@H](C)C(=O)N(C)[C@@H](CC(C)C)C(=O)O[C@H](C)C(=O)N1C [cyclo-(L-MeLeu-D-Lac-)4]
- ring closure, isolated yield ([1]; from H-MeLeu-dLac-MeLeu-dLac-MeLeu-dLac-MeLeu-dLac-OH, EDCI.HCl/HOBt/NMM/KCl/CsCl, 1.0 mM, 3 steps): 86%

SMILES: CC[C@@H](C)[C@H]1OC(=O)[C@H](CC(C)C)N(C)C(=O)[C@@H](Cc2ccccc2)OC(=O)[C@H](CC(C)C)N(C)C(=O)[C@@H]([C@H](C)CC)OC(=O)[C@H](CC(C)C)N(C)C(=O)[C@@H](Cc2ccccc2)OC(=O)[C@H](CC(C)C)N(C)C1=O [Cyclo-(L-MeLeu-D-isoLEUA-L-MeLeu-D-PhLac)2]
- ring closure, isolated yield ([1]; from H-MeLeu-disoLEUA-MeLeu-dPhLac-MeLeu-disoLEUA-MeLeu-dPhLac-OH, EDCI.HCl/HOBt/NMM/LiCl/NaCl/KCl/CsCl, 0.87 mM, 3 steps): 29%

SMILES: CC(C)C[C@H]1C(=O)O[C@H](Cc2ccc(OCc3ccccc3)cc2)C(=O)N(C)[C@@H](CC(C)C)C(=O)O[C@H](C)C(=O)N(C)[C@@H](CC(C)C)C(=O)O[C@H](Cc2ccc(OCc3ccccc3)cc2)C(=O)N(C)[C@@H](CC(C)C)C(=O)O[C@H](C)C(=O)N1C [cyclo-(L-MeLeu-D-Lac-L-MeLeu-D-TYRA(OBn))2]
- ring closure, isolated yield ([1]; from H-MeLeu-dLac-MeLeu-dTYRA(OBn)-MeLeu-dLac-MeLeu-dTYRA(OBn)-OH, EDCI.HCl/HOBt/NMM/LiCl/NaCl/KCl/CsCl, 0.66 mM, 25.0 °C): 60.5%

SMILES: CCCC[C@H]1OC(=O)[C@H](CC(C)C)N(C)C(=O)[C@@H](Cc2ccccc2)OC(=O)[C@H](CC(C)C)N(C)C(=O)[C@@H](C)OC(=O)[C@H](CC(C)C)N(C)C(=O)[C@@H](Cc2ccccc2)OC(=O)[C@H](CC(C)C)N(C)C1=O
- ring closure, isolated yield ([1]; from H-MeLeu-dLac-MeLeu-dPhLac-MeLeu-dnorLEUA-MeLeu-dPhLac-OH, EDCI.HCl/HOBt/NMM/LiCl/NaCl/KCl/CsCl, 0.76 mM): 82%

SMILES: CC(C)C[C@H]1C(=O)O[C@H](C(C)C)C(=O)N(C)[C@@H](CC(C)C)C(=O)O[C@H](C)C(=O)N(C)[C@@H](CC(C)C)C(=O)O[C@H](C(C)C)C(=O)N(C)[C@@H](CC(C)C)C(=O)O[C@H](C)C(=O)N1C [Cyclo-(L-MeLeu-D-VALA-L-MeLeu-D-Lac)2]
- ring closure, isolated yield ([1]; from H-MeLeu-dVALA-MeLeu-dLac-MeLeu-dVALA-MeLeu-dLac-OH, EDCI.HCl/HOBt/NMM/LiCl/NaCl/KCl/CsCl, 0.88 mM): 92%
